In US9302999B2, “Substituted triazoles as herbicides” (E. I. DU PONT DE NEMOURS AND COMPANY, priority 2012, dated 2016):
Read-outs that look alike come from different tables or passages of the source.

Experiments:
Assay type in all cases: in vivo
[1] = tested on: velvetleaf (Abutilon theophrasti); test: Test A pre-/postemergence: velvetleaf; details: Abutilon theophrasti, 240 h; for pest or weed control at 125 g/ha: 125 g ai/ha; for pest or weed control at 500 g/ha: 500 g ai/ha
In short: (§1)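 Soil medium was loam blended with sand; treatments pre- and postemergence were applied concurrently, postemergence at one- to two-leaf stage. Approximately ten days in greenhouse preceded visual comparison with untreated controls, scored 0 (no effect) to 100 (complete control).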

[2] = tested on: crabgrass, large (large crabgrass, Digitaria sanguinalis); test: Test A pre-/postemergence: crabgrass, large; details: Digitaria sanguinalis, 240 h; for pest or weed control at 125 g/ha: 125 g ai/ha; for pest or weed control at 500 g/ha: 500 g ai/ha
In short: as §1

[3] = tested on: foxtail, giant (giant foxtail, Setaria faberii); test: Test A pre-/postemergence: foxtail, giant; details: Setaria faberi, 240 h; for pest or weed control at 125 g/ha: 125 g ai/ha; for pest or weed control at 500 g/ha: 500 g ai/ha
In short: as §1

[4] = tested on: barnyardgrass (Echinochloa crus-galli); test: Test A pre-/postemergence: barnyardgrass; details: Echinochloa crus-galli, 240 h; for pest or weed control at 125 g/ha: 125 g ai/ha; for pest or weed control at 500 g/ha: 500 g ai/ha
In short: as §1

[5] = tested on: morningglory (Ipomoea spp.); test: Test A pre-/postemergence: morningglory; details: Ipomoea, 240 h; for pest or weed control at 125 g/ha: 125 g ai/ha; for pest or weed control at 500 g/ha: 500 g ai/ha
In short: as §1

[6] = post-emergence, Postemergence, 0 to 100 scale, 0 is no effect, 100 is complete control, read-out: Velvetleaf plant response rating
[7] = post-emergence, Postemergence, visual rating on 0 to 100 scale (0 no effect, 100 complete control), approximately ten days, read-out: Velvetleaf plant response rating
[8] = pre-emergence, Preemergence, 0 to 100 scale (0 no effect, 100 complete control), read-out: Plant response rating, Velvetleaf
[9] = pre-emergence, Preemergence, 0 to 100 scale, 0 is no effect, 100 is complete control, read-out: Plant response rating, Velvetleaf
[10] = post-emergence, Postemergence, 0 to 100 scale, 0 is no effect, 100 is complete control, read-out: Crabgrass, Large plant response rating
[11] = post-emergence, Postemergence, visual rating on 0 to 100 scale (0 no effect, 100 complete control), approximately ten days, read-out: Crabgrass, Large plant response rating
[12] = pre-emergence, Preemergence, 0 to 100 scale (0 no effect, 100 complete control), read-out: Plant response rating, Crabgrass, Large
[13] = pre-emergence, Preemergence, 0 to 100 scale, 0 is no effect, 100 is complete control, read-out: Plant response rating, Crabgrass, Large
[14] = post-emergence, Postemergence, 0 to 100 scale, 0 is no effect, 100 is complete control, read-out: Foxtail, Giant plant response rating
[15] = post-emergence, Postemergence, visual rating on 0 to 100 scale (0 no effect, 100 complete control), approximately ten days, read-out: Foxtail, Giant plant response rating
[16] = pre-emergence, Preemergence, 0 to 100 scale (0 no effect, 100 complete control), read-out: Plant response rating, Foxtail, Giant
[17] = pre-emergence, Preemergence, 0 to 100 scale, 0 is no effect, 100 is complete control, read-out: Plant response rating, Foxtail, Giant
[18] = post-emergence, Postemergence, 0 to 100 scale, 0 is no effect, 100 is complete control, read-out: Barnyardgrass plant response rating
[19] = post-emergence, Postemergence, visual rating on 0 to 100 scale (0 no effect, 100 complete control), approximately ten days, read-out: Barnyardgrass plant response rating
[20] = pre-emergence, Preemergence, 0 to 100 scale (0 no effect, 100 complete control), read-out: Plant response rating, Barnyardgrass
[21] = pre-emergence, Preemergence, 0 to 100 scale, 0 is no effect, 100 is complete control, read-out: Plant response rating, Barnyardgrass
[22] = post-emergence, Postemergence, 0 to 100 scale, 0 is no effect, 100 is complete control, read-out: Morningglory plant response rating
[23] = post-emergence, Postemergence, visual rating on 0 to 100 scale (0 no effect, 100 complete control), approximately ten days, read-out: Morningglory plant response rating
[24] = pre-emergence, Preemergence, 0 to 100 scale (0 no effect, 100 complete control), read-out: Plant response rating, Morningglory
[25] = pre-emergence, Preemergence, 0 to 100 scale, 0 is no effect, 100 is complete control, read-out: Plant response rating, Morningglory
[26] = pre-emergence, Preemergence, 0 to 100 scale where 0 is no effect and 100 is complete control, read-out: Plant response rating, Velvetleaf
[27] = pre-emergence, Preemergence, 0 to 100 scale where 0 is no effect and 100 is complete control, read-out: Plant response rating, Crabgrass, Large
[28] = pre-emergence, Preemergence, 0 to 100 scale where 0 is no effect and 100 is complete control, read-out: Plant response rating, Foxtail, Giant
[29] = pre-emergence, Preemergence, 0 to 100 scale where 0 is no effect and 100 is complete control, read-out: Plant response rating, Barnyardgrass
[30] = pre-emergence, Preemergence, 0 to 100 scale where 0 is no effect and 100 is complete control, read-out: Plant response rating, Morningglory

SMILES | pest or weed control at 125 g/ha [1, 6] [%] | pest or weed control at 500 g/ha [1, 7] [%] | pest or weed control at 125 g/ha [1, 8] [%] | pest or weed control at 500 g/ha [1, 9] [%] | pest or weed control at 125 g/ha [2, 10] [%] | pest or weed control at 500 g/ha [2, 11] [%] | pest or weed control at 125 g/ha [2, 12] [%] | pest or weed control at 500 g/ha [2, 13] [%] | pest or weed control at 125 g/ha [3, 14] [%] | pest or weed control at 500 g/ha [3, 15] [%] | pest or weed control at 125 g/ha [3, 16] [%] | pest or weed control at 500 g/ha [3, 17] [%] | pest or weed control at 125 g/ha [4, 18] [%] | pest or weed control at 500 g/ha [4, 19] [%] | pest or weed control at 125 g/ha [4, 20] [%] | pest or weed control at 500 g/ha [4, 21] [%] | pest or weed control at 125 g/ha [5, 22] [%] | pest or weed control at 500 g/ha [5, 23] [%] | pest or weed control at 125 g/ha [5, 24] [%] | pest or weed control at 500 g/ha [5, 25] [%] | also measured
Cc1nn(-c2ccc(C(F)(F)F)cc2)nc1Oc1csc(C(F)(F)F)c1 [Compound 1, 4-methyl-2-[4-(trifluoromethyl)phenyl]-5-[[5-(trifluoromethyl)-3-thienyl]oxy]-2H-1,2,3-triazole] | 30 | 70 | 0 | 10 | 70 | 90 | 70 | 100 | 50 | 70 | 60 | 100 | 0 | 20 | 20 | 50 | 50 | 100 | 0 | 20 | –
Cc1nn(-c2ccc(F)cc2F)nc1Cc1ccnc(C(F)(F)F)c1 [Compound 54, 4-[[2-(2,4-difluorophenyl)-5-methyl-2H-1,2,3-triazol-4-yl]methyl]-2-(trifluoromethyl)pyridine] | 90 | 100 | 30 | 60 | 80 | 90 | 100 | 100 | 80 | 90 | 100 | 100 | 70 | 90 | 80 | 100 | – | – | 60 | 90 | –
COCc1nn(-c2ccc(C(F)(F)F)cc2)nc1Oc1cccc(OC(F)(F)F)c1 [Compound 115, 4-(methoxymethyl)-5-[3-(trifluoromethoxy)phenoxy]-2-[4-(trifluoromethyl)phenyl]-2H-1,2,3-triazole] | 10 | 30 | – | – | 50 | 80 | – | – | 30 | 60 | – | – | 20 | 30 | – | – | 90 | 100 | – | – | pest or weed control at 125 g/ha [1, 26]: 0%; pest or weed control at 500 g/ha [1, 8]: 20%; pest or weed control at 125 g/ha [2, 27]: 80%; pest or weed control at 500 g/ha [2, 12]: 100%; pest or weed control at 125 g/ha [3, 28]: 60%; pest or weed control at 500 g/ha [3, 16]: 100%; pest or weed control at 125 g/ha [4, 29]: 30%; pest or weed control at 500 g/ha [4, 20]: 60%; pest or weed control at 125 g/ha [5, 30]: 0%; pest or weed control at 500 g/ha [5, 24]: 10%
FCc1nn(-c2ccc(C(F)(F)F)cc2)nc1Oc1cccc(OC(F)(F)F)c1 [Compound 116, 4-(fluoromethyl)-5-[3-(trifluoromethoxy)phenoxy]-2-[4-(trifluoromethyl)phenyl]-2H-1,2,3-triazole] | 20 | 50 | – | – | 40 | 80 | – | – | 30 | 50 | – | – | 10 | 20 | – | – | 70 | 100 | – | – | pest or weed control at 125 g/ha [1, 26]: 0%; pest or weed control at 500 g/ha [1, 8]: 20%; pest or weed control at 125 g/ha [2, 27]: 70%; pest or weed control at 500 g/ha [2, 12]: 100%; pest or weed control at 125 g/ha [3, 28]: 60%; pest or weed control at 500 g/ha [3, 16]: 90%; pest or weed control at 125 g/ha [4, 29]: 0%; pest or weed control at 500 g/ha [4, 20]: 30%; pest or weed control at 125 g/ha [5, 30]: 0%; pest or weed control at 500 g/ha [5, 24]: 10%
